Measured values taken from article PMC3797685, “Enhanced Production, Purification, Characterization and Mechanism of Action of Salivaricin 9 Lantibiotic Produced by Streptococcus salivarius NU10” (PLoS ONE, 2013).
Starred links: 1 amine or outer side, 2 acyl side, 3 side chain; linkers in the order of their positions; H or OH if unused. Positions of bridges follow the written chain, without caps; N, C: chain ends. Non-standard residues stand in square brackets, D forms with d. Residues, ends and D or L forms follow the SMILES beside them. dAbu(3S-yl) = C[C@@H]([C@@H](N[*:1])C(=O)[*:2])[*:3]; Dhb = C/C=C(\N)C(=O)O

Key:
[1] = system: S. salivarius strain NU10; test: Salivaricin induction assay, strain NU10; format: cell-based, Streptococcus salivarius; settings: 0.05 ml test sample (titre 4 AU/ml) added to washed cells in M17YESUCa, 18 h anaerobic; well diffusion assay, induced vs control tube
Excerpt: (§1) The bacteriocin-inducing activities present in crude extracts of S. salivarius strains NU10, YU10, K12 and in FPLC-purified salivaricin 9 peptide fractions having anti-Micrococcus luteus activity was investigated in this study. The crude extracts of producer cells designated as BLIS-NU10, BLIS-YU10 and BLIS-K12 were isolated by acidic methanol extraction of the producer cells as described previously. These crude BLIS extracts had the potential to contain at least two lantibiotics on the basis of PCR assessment for their content of lantibiotic structural genes. Strains NU10 and YU10 had the structural genes for salivaricin 9 and salivaricin A and strain K12 had salivaricin A and salivaricin B structural genes. […] Colonies from an 18 h culture of each S. salivarius strain NU10, YU10 and K12 grown anaerobically on BACa agar was used to inoculate 10 ml of M17YESUCa broth and incubated again under the same conditions. The cells were then collected by centrifugation at 18000 x g for 5 min and washed three times in saline buffer to reduce the levels of cell surface-associated lantibiotic before suspending in 10 ml of the same buffer. […] Induction of salivaricin 9 or salivaricin A production was recorded as inhibitory zones surrounding samples from the induced tubes but not the control tubes. […]

[2] = system: S. salivarius strain YU10; test: Salivaricin induction assay, strain YU10; format: cell-based, Streptococcus salivarius; settings: 0.05 ml test sample (titre 4 AU/ml) added to washed cells in M17YESUCa, 18 h anaerobic; well diffusion assay, induced vs control tube
Excerpt: as §1

S. salivarius strain K12 = test: Salivaricin induction assay, strain K12; format: cell-based, Streptococcus salivarius; settings: 0.05 ml test sample (titre 4 AU/ml) added to washed cells in M17YESUCa, 18 h anaerobic; well diffusion assay, induced vs control tube
Excerpt: as §1

[3] = system: Actinomyces naeslundii TG2; test: Minimal inhibitory concentration (NCCLS); format: cell-based; set-up: key: ++++: inhibition zone >12 mm; +++: inhibition zone = 10 mm; ++: inhibition zone < 5 mm; -: No inhibition; settings: pure salivaricin 9, NCCLS method
Method: (§2) An induced culture of S. salivarius NU10 was centrifuged at 8000 x g to pellet the cells. The cell free supernatant (CFS) was filtered through 0.2 µm sterilized cellulose membrane (Millipore) to ensure that all cell debris was removed. The filtered crude bacteriocin preparation was passed through 100 ml XAD-16 particles (Sigma) packed in a glass column. The column was washed with 400 ml of distilled water followed by 200 ml of 70% methanol before the active fraction was eluted using 200 ml of 95% methanol (adjusted to pH 2) at a flow rate of 15 ml/min. The methanol was removed using a rotary evaporator and the resulting peptide preparation was lyophilized and stored at -20°C. The lyophilized peptide pellets were dissolved in 20 mM sodium phosphate pH 5.8 (binding buffer). Then the sample was injected into a fast protein liquid chromatography (FPLC) system (ÄKTA Purifier™) using HiTrap SP FF 5ml strong cation exchanger column (GE Healthcare) equilibrated with the same buffer at a flow rate of 1 ml/min. Then the column was washed with 10X column volume of the binding buffer before salivaricin 9 was eluted using a linear gradient of 0 to 1M NaCl in 20 mM sodium phosphate buffer at pH 5.8 (Figure 4). All fractions were tested for inhibitory activity using Micrococcus luteus as the indicator. MIC values of pure salivaricin 9 against a set of bacterial indicator strains were determined by following the National Committee for Clinical Laboratory Standards (NCCLS) (Table 3).

[4] = system: Bacillus cereus ATCC14579; test: Minimal inhibitory concentration (NCCLS); format: cell-based; set-up: key: ++++: inhibition zone >12 mm; +++: inhibition zone = 10 mm; ++: inhibition zone < 5 mm; -: No inhibition; settings: pure salivaricin 9, NCCLS method
Method: as §2

[5] = system: Haemophilus parainfluenza TONEJ11; test: Minimal inhibitory concentration (NCCLS); format: cell-based; set-up: key: ++++: inhibition zone >12 mm; +++: inhibition zone = 10 mm; ++: inhibition zone < 5 mm; -: No inhibition; settings: pure salivaricin 9, NCCLS method
Method: as §2

[6] = system: Staphylococcus aureus RF122; test: Minimal inhibitory concentration (NCCLS); format: cell-based; set-up: key: ++++: inhibition zone >12 mm; +++: inhibition zone = 10 mm; ++: inhibition zone < 5 mm; -: No inhibition; settings: pure salivaricin 9, NCCLS method
Method: as §2

[7] = system: Streptococcus mutans GEJ11; test: Minimal inhibitory concentration (NCCLS); format: cell-based; set-up: key: ++++: inhibition zone >12 mm; +++: inhibition zone = 10 mm; ++: inhibition zone < 5 mm; -: No inhibition; settings: pure salivaricin 9, NCCLS method
Method: as §2

Micrococcus luteus [8] = test: Mode of action, addition to growing culture (OD600); format: cell-based; settings: added to different growth phases of Micrococcus luteus culture
Method: When added to different growth phases of Micrococcus luteus culture, salivaricin 9 induced cell lysis.
Figure 7 Bactericidal mode of action of salivaricin 9. Salivaricin 9 was added to different phases of bacterial growth. […] The sensitive bacteria Micrococcus luteus lost the ability to grow again after salivaricin 9 was added.

Micrococcus luteus [9] = test: pH stability (residual inhibitory activity); format: physicochemical; settings: for Inhibition zone after pH exposure: indicator Micrococcus luteus, titre 800 AU/ml
Method: (§3) Heat stability was studied by exposing pure salivaricin 9 to different temperatures for one hour after which the sample was centrifuged and the supernatant tested for inhibitory activity. The stability of the peptide at different pH values was also evaluated and tested for inhibitory activity. Specific enzymatic effects of denaturation on salivaricin 9 were tested using two wells of 6mm diameter each separated by a distance of 4 mm in CAB plates. One well was filled with 50µl of pure salivaricin 9 while the other was filled with 50µl of the tested enzyme. The plate was incubated at 50°C for 2 hours and then incubated at 37°C overnight before seeding the indicator strain onto the agar surface using a cotton swab. Then the plate was re-incubated at 37°C for 18 hours and the zones of inhibitions that appeared indicated residual activity of salivaricin 9 while absence of inhibition zones indicated the denaturation of the antimicrobial peptide by the applied enzymes namely proteinase K, peptidase, lyticase and catalase. The stability of salivaricin 9 to treatment with the chemicals EDTA, SDS, urea, NaCl and β-mercaptoethanol was examined by adding 1% of these chemicals to the bacteriocin followed by incubation for two hours at RT before the samples were centrifuged and the supernatant tested as mentioned above. If the chemical was a solvent such as β-mercaptoethanol, then the solvent was evaporated before testing for antimicrobial activity (Table 4).

Proteinase = test: Enzyme stability (residual inhibitory activity); format: physicochemical; settings: Proteinase 1 mg.ml^-1; adjacent wells, 50 µl each; 50°C 2 hours then 37°C overnight; indicator Micrococcus luteus; titre 800 AU/ml
Method: (§4) Specific enzymatic effects of denaturation on salivaricin 9 were tested using two wells of 6mm diameter each separated by a distance of 4 mm in CAB plates. One well was filled with 50µl of pure salivaricin 9 while the other was filled with 50µl of the tested enzyme. The plate was incubated at 50°C for 2 hours and then incubated at 37°C overnight before seeding the indicator strain onto the agar surface using a cotton swab. Then the plate was re-incubated at 37°C for 18 hours and the zones of inhibitions that appeared indicated residual activity of salivaricin 9 while absence of inhibition zones indicated the denaturation of the antimicrobial peptide by the applied enzymes namely proteinase K, peptidase, lyticase and catalase.

Proteinase K = Proteinase K (Parengyodontium album, UniProt P06873); test: Enzyme stability (residual inhibitory activity)
Method: Heat stability was studied by exposing pure salivaricin 9 to different temperatures for one hour after which the sample was centrifuged and the supernatant tested for inhibitory activity. The stability of the peptide at different pH values was also evaluated and tested for inhibitory activity. Specific enzymatic effects of denaturation on salivaricin 9 were tested using two wells of 6mm diameter each separated by a distance of 4 mm in CAB plates. One well was filled with 50µl of pure salivaricin 9 while the other was filled with 50µl of the tested enzyme. The plate was incubated at 50°C for 2 hours and then incubated at 37°C overnight before seeding the indicator strain onto the agar surface using a cotton swab. Then the plate was re-incubated at 37°C for 18 hours and the zones of inhibitions that appeared indicated residual activity of salivaricin 9 while absence of inhibition zones indicated the denaturation of the antimicrobial peptide by the applied enzymes namely proteinase K, peptidase, lyticase and catalase. The stability of salivaricin 9 to treatment with the chemicals EDTA, SDS, urea, NaCl and β-mercaptoethanol was examined by adding 1% of these chemicals to the bacteriocin followed by incubation for two hours at RT before the samples were centrifuged and the supernatant tested as mentioned above. […]

Lyticase = test: Enzyme stability (residual inhibitory activity)
Method: as §4

Micrococcus luteus [10] = test: Stability to detergents / chemicals (residual inhibitory activity); format: physicochemical; settings: two hours at RT, indicator Micrococcus luteus, titre 800 AU/ml
Method: as §3

Sequence of Proteinase K (P06873 106-384): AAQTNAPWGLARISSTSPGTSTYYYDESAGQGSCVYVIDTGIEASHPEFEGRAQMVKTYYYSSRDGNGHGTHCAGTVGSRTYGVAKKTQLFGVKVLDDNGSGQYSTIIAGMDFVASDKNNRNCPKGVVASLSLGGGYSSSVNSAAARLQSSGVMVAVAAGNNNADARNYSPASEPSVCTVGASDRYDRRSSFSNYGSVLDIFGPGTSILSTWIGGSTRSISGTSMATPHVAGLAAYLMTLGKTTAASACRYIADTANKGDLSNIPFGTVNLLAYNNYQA

C/C=C1\NC(=O)[C@H](Cc2c[nH]c3ccccc23)NC(=O)[C@@H]2NC(=O)[C@H](C)NC(=O)[C@H](CC(C)C)NC(=O)[C@H](CC(N)=O)NC(=O)[C@@H]3CS[C@@H](C)[C@@H](NC(=O)[C@H](CC(C)C)NC(=O)[C@@H](NC(=O)[C@@H](NC(=O)CNC(=O)[C@H](CC(N)=O)NC(=O)CN)C(C)C)C(C)C)C(=O)N[C@@H](CC(C)C)C(=O)N[C@@H](C(=O)N[C@@H](Cc4c[nH]cn4)C(=O)N[C@@H](CCC(=O)O)C(=O)N3)[C@H](C)SC[C@H](NC(=O)[C@H](CCCCN)NC(=O)[C@H](CC(C)C)NC(=O)[C@H](CCCCN)NC(=O)[C@H](CCCCN)NC1=O)C(=O)N[C@H](C(=O)O)CS[C@H]2C [Salivaricin 9] (H-GNGVVL[dAbu(3S-yl)]L[dAbu(3S-yl)]HECNLA[dAbu(3S-yl)]W[Dhb]KKLKCC-OH; thioether 7-12, 9-23, 16-24; N-terminus and C-terminus assumed)
Preparation induces inhibitor production in NU10 [1]: Yes | Preparation induces inhibitor production in YU10 [2]: Yes | Preparation induces inhibitor production in K12 (S. salivarius strain K12): No | MIC of salivaricin 9 [3]: - | MIC of salivaricin 9 [4]: - | MIC of salivaricin 9 [5]: - | MIC of salivaricin 9 [6]: - | MIC of salivaricin 9 [7]: - | Mode of action (OD600 after addition to culture) (Micrococcus luteus [8]): bactericidal and bacteriolytic | Inhibition zone after pH exposure (Micrococcus luteus [9]; pH 2- 7): ++++ (inhibition zone >20 mm) | Inhibition zone after pH exposure (Micrococcus luteus [9]; pH 8-10): +++ (inhibition zone =20 mm) | Inhibition zone after pH exposure (Micrococcus luteus [9]; pH 11-12): - | Antimicrobial activity after pH exposure (in words) (Micrococcus luteus [9]; pH range of 2 to 10): retained | Inhibition zone after enzyme treatment (Proteinase): - | Inhibition zone after enzyme treatment (Proteinase K; Proteinase K 1 mg.ml^-1, adjacent wells, 50 µl each, 50°C 2 hours then 37°C overnight, indicator Micrococcus luteus, titre 800 AU/ml): - | Antimicrobial activity after enzyme treatment (in words) (Proteinase K; treated with proteinase K): lost all antimicrobial activity | Inhibition zone after enzyme treatment (Lyticase; Lyticase 1 mg.ml^-1, adjacent wells, 50 µl each, 50°C 2 hours then 37°C overnight, indicator Micrococcus luteus, titre 800 AU/ml): ++++ (inhibition zone >20 mm) | Antimicrobial activity after enzyme treatment (in words) (Lyticase; treated with lyticase): remained active | Inhibition zone after detergent / chemical treatment (Micrococcus luteus [10]; EDTA 1% (w/v)): ++++ (inhibition zone >20 mm) | Inhibition zone after detergent / chemical treatment (Micrococcus luteus [10]; NaCl 1% (w/v)): ++++ (inhibition zone >20 mm) | Inhibition zone after detergent / chemical treatment (Micrococcus luteus [10]; SDS 1% (w/v)): ++++ (inhibition zone >20 mm) | Inhibition zone after detergent / chemical treatment (Micrococcus luteus [10]; Tritone X100 1% (w/v)): ++ (inhibition zone < 20 mm) | Inhibition zone after detergent / chemical treatment (Micrococcus luteus [10]; Tween 20 1% (w/v)): ++++ (inhibition zone >20 mm) | Inhibition zone after detergent / chemical treatment (Micrococcus luteus [10]; Tween 80 1% (w/v)): ++++ (inhibition zone >20 mm) | Inhibition zone after detergent / chemical treatment (Micrococcus luteus [10]; Urea 1% (w/v)): ++++ (inhibition zone >20 mm)
